This note sets out measurements from patent publication US9006174B2 (priority 2009, dated 2015).

Ends that are not written are not given here.

The data set concerns hRBCs. Conditions: human erythrocytes, 1 h at 37° C.

Regarding “RFGRFLRKIRRFRGKVTITIQGSARF [CMAP26 (P14→G)]”, the “Toxicity Haemolysis (hRBCs)” value is listed as “− (<25% dead cells)”.

In the case of “RFGRFLRKIRRLRPK [CMAP(1-15) (F12→L), RFGRFLRKIRRLRPK]”, the “Toxicity Haemolysis (hRBCs)” value is listed as “− (<25% dead cells)”.

With “RFGRFLRKIRRWRPK [CMAP(1-15) (F12→W), RFGRFLRKIRRWRPK]”, the “Toxicity Haemolysis (hRBCs)” value is “−− (<5% dead cells)”.

Turning to “RFGRFLRKIRRFRLKVTITIQGSARF [CMAP26 (P14→L)]”, the “Toxicity Haemolysis (hRBCs)” value is on record as “− (<25% dead cells)”.
